# Test system: patients after acute myocardial infarction
# Assay: TCM symptom score, total and single (chest pain, chest tightness, short breath, fatigue, palpitation, spontaneous perspiration, pale complexion), same clinical trial
# Type: in vivo, human
# Design: total score of TCM symptom, Mean / total score of TCM symptom, Min / total score of TCM symptom, Max / total score of TCM symptom, Md / change of total score of TCM symptom, Mean / change of total score of TCM symptom, Max / change of total score of TCM symptom, Md: scale not given here
# Conditions: PP
# Excerpt: 3508 patients who were in accordance with the diagnostic standards of AMI for 28 days to 2 years and differentiated as Qi deficiency and blood stagnation syndrome by TCM were studied. 0.5 g Chinese medicine composition prepared by the method of EXAMPLE 1 (Coded as QSYQ) was administrated half an hour after meal, 3 times per day.
# They included the overall survival time, angina pectoris score, TCM symptom score and life quality score, where angina pectoris score, TCM symptom score and life quality score were evaluated at randomization, in 1st, 3rd, 6th, 9th, 12th month after treatment and 18th month after follow-up.
# The analysis method referred to the angina pectoris score.
# [1] = 3 months after treatment-baseline
# [2] = 6 months after treatment-baseline
smiles,measurement,setting,value
"CC(=O)Oc1ccccc1C(=O)O [Control group, aspirine]","change of short breath 2, number of patients",[1],309
same,"change of short breath 4, % of patients",[1],(2.36%)
same,"change of short breath 4, number of patients",[1],34
same,"change of short breath 6, % of patients",[1],(0.55%)
same,"change of short breath 6, number of patients",[1],8
same,"change of short breath −2, % of patients",[1],(5.27%)
same,"change of short breath −2, number of patients",[1],76
same,"change of short breath −4, % of patients",[1],(0.14%)
same,"change of short breath −4, number of patients",[1],2
same,"change of short breath −6, % of patients",[1],(0.00%)
same,"change of short breath −6, number of patients",[1],0
same,"change of spontaneous perspiration 0, number of patients",[1],898
same,"change of spontaneous perspiration 0, percent of patients",[1],(62.23%)
same,"change of spontaneous perspiration 1, number of patients",[1],342
same,"change of spontaneous perspiration 1, percent of patients",[1],(23.70%)
same,"change of spontaneous perspiration 2, number of patients",[1],71
same,"change of spontaneous perspiration 2, percent of patients",[1],(4.92%)
same,"change of spontaneous perspiration 3, number of patients",[1],16
same,"change of spontaneous perspiration 3, percent of patients",[1],(1.11%)
same,"change of spontaneous perspiration −1, number of patients",[1],101
same,"change of spontaneous perspiration −1, percent of patients",[1],(7.00%)
same,"change of spontaneous perspiration −2, number of patients",[1],13
same,"change of spontaneous perspiration −2, percent of patients",[1],(0.90%)
same,"change of spontaneous perspiration −3, number of patients",[1],2
same,"change of spontaneous perspiration −3, percent of patients",[1],(0.14%)
same,"distribution of total score of TCM symptom: Medium, number of patients",6 months after treatment,377
same,"distribution of total score of TCM symptom: Medium, percentage of patients",6 months after treatment,(26.40%)
same,"distribution of total score of TCM symptom: Mild, number of patients",6 months after treatment,1044
same,"distribution of total score of TCM symptom: Mild, percentage of patients",6 months after treatment,(73.11%)
same,"distribution of total score of TCM symptom: Severe, number of patients",6 months after treatment,7
same,"distribution of total score of TCM symptom: Severe, percentage of patients",6 months after treatment,(0.49%)
same,"fatigue score 0, % of patients",6 months after treatment,(31.00%)
same,"fatigue score 0, number of patients",6 months after treatment,443
same,"fatigue score 2, % of patients",6 months after treatment,(61.65%)
same,"fatigue score 2, number of patients",6 months after treatment,881
same,"fatigue score 4, % of patients",6 months after treatment,(6.79%)
same,"fatigue score 4, number of patients",6 months after treatment,97
same,"fatigue score 6, % of patients",6 months after treatment,(0.56%)
same,"fatigue score 6, number of patients",6 months after treatment,8
same,"pale complexion score 0, number of patients",6 months after treatment,750
same,"pale complexion score 0, percent of patients",6 months after treatment,(52.48%)
same,"pale complexion score 1, number of patients",6 months after treatment,540
same,"pale complexion score 1, percent of patients",6 months after treatment,(37.79%)
same,"pale complexion score 2, number of patients",6 months after treatment,133
same,"pale complexion score 2, percent of patients",6 months after treatment,(9.31%)
same,"pale complexion score 3, number of patients",6 months after treatment,6
same,"pale complexion score 3, percent of patients",6 months after treatment,(0.42%)
same,"palpitation score 0, number of patients",6 months after treatment,456
same,"palpitation score 0, percent of patients",6 months after treatment,(31.91%)
same,"palpitation score 2, number of patients",6 months after treatment,764
same,"palpitation score 2, percent of patients",6 months after treatment,(53.46%)
same,"palpitation score 4, number of patients",6 months after treatment,192
same,"palpitation score 4, percent of patients",6 months after treatment,(13.44%)
same,"palpitation score 6, number of patients",6 months after treatment,17
same,"palpitation score 6, percent of patients",6 months after treatment,(1.19%)
same,"short breath score 0, % of patients",6 months after treatment,(25.21%)
same,"short breath score 0, number of patients",6 months after treatment,360
same,"short breath score 2, % of patients",6 months after treatment,(0.07%)
same,"short breath score 2, number of patients",6 months after treatment,1
same,"short breath score 3, % of patients",6 months after treatment,(58.68%)
same,"short breath score 3, number of patients",6 months after treatment,838
same,"short breath score 6, % of patients",6 months after treatment,(15.55%)
same,"short breath score 6, number of patients",6 months after treatment,222
same,"short breath score 9, % of patients",6 months after treatment,(0.49%)
same,"short breath score 9, number of patients",6 months after treatment,7
same,"spontaneous perspiration score 0, number of patients",6 months after treatment,628
same,"spontaneous perspiration score 0, percent of patients",6 months after treatment,(43.98%)
same,"spontaneous perspiration score 1, number of patients",6 months after treatment,676
same,"spontaneous perspiration score 1, percent of patients",6 months after treatment,(47.34%)
same,"spontaneous perspiration score 2, number of patients",6 months after treatment,117
same,"spontaneous perspiration score 2, percent of patients",6 months after treatment,(8.19%)
same,"spontaneous perspiration score 3, number of patients",6 months after treatment,7
same,"spontaneous perspiration score 3, percent of patients",6 months after treatment,(0.49%)
same,"total score of TCM symptom, Max",6 months after treatment,34.00
same,"total score of TCM symptom, Md",6 months after treatment,9.00
same,"total score of TCM symptom, Mean",6 months after treatment,9.79
same,"total score of TCM symptom, Min",6 months after treatment,0.00
same,"change of fatigue 0, % of patients",[2],(55.47%)
same,"change of fatigue 0, number of patients",[2],791
same,"change of fatigue 2, % of patients",[2],(30.01%)
same,"change of fatigue 2, number of patients",[2],428
same,"change of fatigue 4, % of patients",[2],(6.80%)
same,"change of fatigue 4, number of patients",[2],97
same,"change of fatigue 6, % of patients",[2],(1.12%)
same,"change of fatigue 6, number of patients",[2],16
same,"change of fatigue −2, % of patients",[2],(6.03%)
same,"change of fatigue −2, number of patients",[2],86
same,"change of fatigue −4, % of patients",[2],(0.56%)
same,"change of fatigue −4, number of patients",[2],8
same,"change of fatigue −6, % of patients",[2],(0.00%)
same,"change of fatigue −6, number of patients",[2],0
same,"change of pale complexion 0, number of patients",[2],1104
same,"change of pale complexion 0, percent of patients",[2],(77.47%)
same,"change of pale complexion 1, number of patients",[2],272
same,"change of pale complexion 1, percent of patients",[2],(19.09%)
same,"change of pale complexion −1, number of patients",[2],49
same,"change of pale complexion −1, percent of patients",[2],(3.44%)
same,"change of palpitation 0, number of patients",[2],842
same,"change of palpitation 0, percent of patients",[2],(59.09%)
same,"change of palpitation 1, number of patients",[2],431
same,"change of palpitation 1, percent of patients",[2],(30.25%)
same,"change of palpitation 2, number of patients",[2],53
same,"change of palpitation 2, percent of patients",[2],(3.72%)
same,"change of palpitation 3, number of patients",[2],7
same,"change of palpitation 3, percent of patients",[2],(0.49%)
same,"change of palpitation −1, number of patients",[2],88
same,"change of palpitation −1, percent of patients",[2],(6.18%)
same,"change of palpitation −2, number of patients",[2],4
same,"change of palpitation −2, percent of patients",[2],(0.28%)
same,"change of short breath 0, % of patients",[2],(63.53%)
same,"change of short breath 0, number of patients",[2],906
same,"change of short breath 2, % of patients",[2],(27.14%)
same,"change of short breath 2, number of patients",[2],387
same,"change of short breath 4, % of patients",[2],(3.16%)
same,"change of short breath 4, number of patients",[2],45
same,"change of short breath 6, % of patients",[2],(0.56%)
same,"change of short breath 6, number of patients",[2],8
same,"change of short breath −2, % of patients",[2],(5.33%)
same,"change of short breath −2, number of patients",[2],76
same,"change of short breath −4, % of patients",[2],(0.14%)
same,"change of short breath −4, number of patients",[2],2
same,"change of short breath −6, % of patients",[2],(0.14%)
same,"change of short breath −6, number of patients",[2],2

# Source: patent US9211310B2, “Use of a Chinese medicine composition in preparing medicaments for treating secondary prevention of myocardial infarction” (TASLY PHARMACEUTICAL GROUP CO., LTD, priority 2010, dated 2015)
